Data as given in US7563788B2, “Substituted Imidazo[1,2-a]pyridines as Antibacterial Agents” (Pfizer Inc., priority 2004, dated 2009).
Values after ≈ are worked out from the molar mass of the structure shown.

Tested on: Neisseria gonorrhoeae, GC525 (NG-2888)
Assay: In-vitro antibacterial activity, microbroth dilution MIC susceptibility testing
Type: cell-based
Conditions: gonococcal broth, 20-24 hours at 35° C., lowest concentration preventing visible growth
Experimental: The in-vitro antibacterial activity of selected compounds was determined against a stain of Neisseria gonorrhoeae, GC525 (NG-2888), which is described by Rouquette-Loughlin et al, in Journal of Bacteriology, February 2003, p. 1101-1106, at p. 1103. In general, minimum inhibitory concentration (MIC) susceptibility testing followed procedures recommended by the National Committee for Clinical Laboratory Standards (NCCLS^1-2) or followed the descriptions described below:
Neisseria gonorrhoeae strains were grown on Chocolate Agar II plates (BBL—Becton Dickinson Microbiology Systems, Cockeysville, Md.) and incubated at 35° C. in a humidified 5% CO2 incubator (Forma Scientific, Marietta Ohio). For microbroth dilution MIC testing, N. gonorrhoeae were tested in gonococcal broth (GCB):
Bacterial culture identifications were confirmed by standard microbiological methods.^4 N. gonorrhoeae strains were streaked onto appropriate agar plates for visualization of purity and expected colony morphology. Gram stains were also utilized.
Bacterial stock cultures are stored as frozen suspensions at −70° C. N. gonorrhoeae cultures are suspended in inactivated Horse Serum (Colorado Serum Company, Denver, Colo.) containing 7.5% glucose prior to snap freezing in a dry ice/ethanol bath.
Frozen stock cultures were used as the initial source of organisms for performing microbroth dilution MIC testing. Stock cultures were passed on their respective growth medium at least one growth cycle (18-24 hours) prior to their use. Bacterial culture suspensions were prepared directly from Chocolate Agar II plates into 10 mL cation-adjusted Mueller-Hinton Broth (CAMHB, BBL, # BB215069). Before use, cultures were adjusted to an optical density value of […] on a Perkin-Elmer Lambda EZ150 Spectrophotometer (Wellesley, Mass.) set at a wavelength of 600 nm. Random cultures were plated for validation of actual colony counts. The adjusted cultures were diluted 400-fold (0.25 mL inoculum+100 mL GCB) into gonococcal broth producing a starting inoculum of approximately 5×10^5 cfu/mL. These cultures were inoculated into test plates (100 uL/well) using a Biomek® FX workstation (Beckman Coulter Inc., Fullerton, Calif.). The inoculated plates were placed in stacks of no more than 4 and covered with an empty plate. Plates were incubated for 20-24 hours at 35° C. in a humidified CO2 incubator.
Drug stock solutions (2 mg/mL in DMSO) were prepared on the day of testing. Drugs were weight corrected for assay content where necessary.
Microbroth dilution stock plates were prepared in two dilution series, 64-0.06 ug drug/mL and 1-0.001 ug drug/mL. For the high concentration series, 200 uL of stock solution (2 mg/mL) was added to duplicate rows of a 96-well plate. This was used as the first well in the dilution series. Serial two-fold decremental dilutions were made using a BioMek FX robot (Beckman Coulter Inc., Fullerton, Calif.) with 10 of the remaining 11 wells, each of which contained 100 uL of the appropriate solvent/diluent. Row 12 contained solvent/diluent only and served as the control. For tube one of the low concentration series, 200 uL of a 31.25 ug/mL stock was added to duplicate rows of a 96-well plate. Serial two-fold dilutions were made as described above.
Daughter plates were spotted (3.2 uL/well) from the stock plates listed above using the BioMek FX robot and were inoculated with organism (100 uL/well) as described previously.
After incubation, the degree of growth in each well was read visually with the aid of a Test Reading Mirror (Dynatech Lab 220-16, Dynex Technologies, Chantilly, Va.). 96-well test plates are read in a darkened room with a single light shining from above. The MIC is the lowest concentration of drug that prevents macroscopically visible growth under the conditions of the test. Each drug dilution series was tested in duplicate; identical results are not always obtained. If MIC values in duplicate tests differ by 1 well (two-fold), the […] value is reported. […]

Compound	MIC [µg/mL]
CCNC(=O)Nc1cn2ccc(C(=O)OC)cc2n1 [Example 18, 2-(3-Ethyl-ureido)-imidazo[1,2-a]pyridine-7-carboxylic Acid Methyl Ester]	> 64
CCNC(=O)Nc1cn2ccc(C(C)=O)cc2n1 [Example 35, N-(7-acetylimidazo[1,2-a]pyridin-2-yl)-N′-ethylurea]	64 (≈ 260 µM)
CCNC(=O)Nc1nc2cc(-c3cnc(N(C)C)nc3)ccn2c1Cl [Example 17, 1-[3-Chloro-7-(2-dimethylamino-pyrimidin-5-yl)-imidazo[1,2-a]pyridin-2-yl]-3-ethyl-urea]	> 32
CCNC(=O)Nc1cn2ccc(C(=O)O)cc2n1 [Example 24, 2-(3-Ethyl-ureido)-imidazo[1,2-a]pyridine-7-carboxylic Acid]	> 64
CCNC(=O)Nc1cn2c(-c3cnn(C)c3)cc(-c3cccnc3)cc2n1 [Example 23, 1-Ethyl-3-[5-(1-methyl-1H-pyrazol-4-yl)-7-pyridin-3-yl-imidazo[1,2-a]pyridin-2-yl]-urea]	0.13 (≈ 0.36 µM)
CCNC(=O)Nc1cn2ccc(-c3c(C)nn(C(=O)OC(C)(C)C)c3C)cc2n1 [Example 14, 4-[2-(3-Ethyl-ureido)-imidazo[1,2-a]pyridin-7-yl]-3,5-dimethyl-pyrazole-1-carboxylic Acid Tert-Butyl Ester]	64 (≈ 161 µM)
CCNC(=O)Nc1cn2ccc(-c3noc(=O)[nH]3)cc2n1 [Example 41, 1-Ethyl-3-[7-(5-oxo-4,5-dihydro-[1,2,4]oxadiazol-3-yl)-imidazo[1,2-a]pyridin-2-yl]-urea]	> 64
CCNC(=O)Nc1cn2c(C(=O)OC)cc(-c3cccnc3)cc2n1 [Example 7B, 2-(3-Ethyl-ureido)-7-pyridin-3-yl-imidazo[1,2-a]pyridine-5-carboxylic Acid Methyl Ester]	0.5 (≈ 1.47 µM)
CCNC(=O)Nc1cn2ccc(C(N)=O)cc2n1 [Example 19, 2-(3-Ethyl-ureido)-imidazo[1,2-a]pyridine-7-carboxylic Acid Amide]	> 64
CCNC(=O)Nc1cn2c(CO)cc(-c3cccnc3)cc2n1 [Example 7A, 1-Ethyl-3-(5-hydroxymethyl-7-pyridin-3-yl-imidazo[1,2-a]pyridin-2-yl)-urea]	5.66 (≈ 18.2 µM)
CCNC(=O)Nc1cn2ccc(-c3ccc(OCCN4CCOCC4)nc3)cc2n1 [Example 6, 1-Ethyl-3-{7-[6-(2-morpholin-4-yl-ethoxy)-pyridin-3-yl]-imidazo[1,2-a]pyridin-2-yl}-urea]	45.3 (≈ 110 µM)
CCNC(=O)Nc1cn2ccc(-c3ccnc(NC(=O)OC(C)(C)C)c3)cc2n1 [Example 37, {4-[2-(3-Ethyl-ureido)-imidazo[1,2-a]pyridin-7-yl]-pyridin-2-yl}-carbamic Acid Tert-Butyl Ester]	64 (≈ 161 µM)
CCNC(=O)Nc1cn2c(-c3ncccn3)cc(-c3cnc(N(C)C)nc3)cc2n1 [Example 51, 1-[7-(2-Dimethylamino-pyrimidin-5-yl)-5-pyrimidin-2-yl-imidazo[1,2-a]pyridin-2-yl]-3-ethyl-urea]	0.13 (≈ 0.322 µM)
CCNC(=O)Nc1nc2cc(-c3cccnc3)ccn2c1Cl [Example 16, 1-(3-Chloro-7-pyridin-3-yl-imidazo[1,2-a]pyridin-2-yl)-3-ethyl-urea]	64 (≈ 203 µM)
CCNC(=O)Nc1cn2ccc(C(=O)N3CCOCC3)cc2n1 [Example 43, 1-Ethyl-3-[7-(morpholine-4-carbonyl)-imidazo[1,2-a]pyridin-2-yl]-urea]	> 64
CCNC(=O)Nc1cn2c(-c3nc(C)no3)cc(-c3cccnc3)cc2n1 [Example 45, 1-Ethyl-3-[5-(3-methyl-[1,2,4]oxadiazol-5-yl)-7-pyridin-3-yl-imidazo[1,2-a]pyridin-2-yl]-urea]	0.25 (≈ 0.688 µM)

More lines, now with the values ahead:

MIC [µg/mL]	Compound
16 (≈ 56.9 µM)	CCNC(=O)Nc1cn2ccc(-c3cccnc3)cc2n1 [Example 1B, 1-Ethyl-3-(7-pyridin-3-yl-imidazo[1,2-a]pyridin-2-yl)-urea]
5.66 (≈ 20 µM)	CCNC(=O)Nc1cn2ccc(-c3cncnc3)cc2n1 [Example 8, 1-Ethyl-3-(7-pyrimidin-5-yl-imidazo[1,2-a]pyridin-2-yl)-urea]
32 (≈ 108 µM)	CC(C)NC(=O)Nc1cn2ccc(-c3cncnc3)cc2n1 [Example 30, 1-Isopropyl-3-(7-pyrimidin-5-yl-imidazo[1,2-a]pyridin-2-yl)-urea]
16 (≈ 51.4 µM)	CCNC(=O)Nc1cn2ccc(-c3ccnc(OC)c3)cc2n1 [Example 44, 1-Ethyl-3-[7-(2-methoxy-pyridin-4-yl)-imidazo[1,2-a]pyridin-2-yl]-urea]
64 (≈ 169 µM)	CCNC(=O)Nc1cn2ccc(-c3ccc(N4CCN(C)CC4)nc3)cc2n1 [Example 11, 1-Ethyl-3-{7-[6-(4-methyl-piperazin-1-yl)-pyridin-3-yl]-imidazo[1,2-a]pyridin-2-yl}-urea]
64 (≈ 225 µM)	CCNC(=O)Nc1cn2ccc(-c3cnn(C)c3)cc2n1 [Example 12, 1-Ethyl-3-[7-(1-methyl-1H-pyrazol-4-yl)-imidazo[1,2-a]pyridin-2-yl]-urea]
16 (≈ 54 µM)	CCCNC(=O)Nc1cn2ccc(-c3cncnc3)cc2n1 [Example 29, 1-Propyl-3-(7-pyrimidin-5-yl-imidazo[1,2-a]pyridin-2-yl)-urea]
> 64	CCNC(=O)Nc1cn2ccc(-c3cnc(OC)nc3OC)cc2n1 [Example 13, 1-[7-(2,4-Dimethoxy-pyrimidin-5-yl)-imidazo[1,2-a]pyridin-2-yl]-3-ethyl-urea]
> 64	CCOC(=O)Nc1cn2cnc(-c3cccnc3)cc2n1 [Example 5, (7-Pyridin-3-yl-imidazo[1,2-c]pyrimidin-2-yl)-carbamic Acid Ethyl Ester]
16 (≈ 53.5 µM)	CCNC(=O)Nc1cn2ccc(-c3ccc(F)nc3)cc2n1 [Example 46, 1-Ethyl-3-[7-(6-fluoro-pyridin-3-yl)-imidazo[1,2-a]pyridin-2-yl]-urea]
16 (≈ 54 µM)	CCNC(=O)Nc1cn2ccc(-c3ccc(N)nc3)cc2n1 [Example 34, 1-[7-(6-Amino-pyridin-3-yl)-imidazo[1,2-a]pyridin-2-yl]-3-ethyl-urea]
16 (≈ 51.9 µM)	O=C(Nc1cn2ccc(-c3cncnc3)cc2n1)NC1CCC1 [Example 33, 1-Cyclobutyl-3-(7-pyrimidin-5-yl-imidazo[1,2-a]pyridin-2-yl)-urea]
64 (≈ 190 µM)	O=C(NCC(F)(F)F)Nc1cn2ccc(-c3cncnc3)cc2n1 [Example 31, 1-(7-Pyrimidin-5-yl-imidazo[1,2-a]pyridin-2-yl)-3-(2,2,2-trifluoro-ethyl)-urea]
> 64	CCOC(=O)Nc1cn2ccc(-c3cccnc3)cc2n1 [Example 1A, (7-Pyridin-3-yl-imidazo[1,2-a]pyridin-2-yl)-carbamic Acid Ethyl Ester]
> 64	CCNC(=O)Nc1cn2ccc(-c3c(C)noc3C)cc2n1 [Example 9, 1-[7-(3,5-Dimethyl-isoxazol-4-yl)-imidazo[1,2-a]pyridin-2-yl]-3-ethyl-urea]
64 (≈ 237 µM)	CCNC(=O)Nc1cn2ccc(-c3cn[nH]c3)cc2n1 [Example 15, 1-Ethyl-3-[7-(1H-pyrazol-4-yl)-imidazo[1,2-a]pyridin-2-yl]-urea]
> 64	COCCNC(=O)Nc1cn2ccc(-c3cncnc3)cc2n1 [Example 32, 1-(2-Methoxy-ethyl)-3-(7-pyrimidin-5-yl-imidazo[1,2-a]pyridin-2-yl)-urea]
> 64	CCNC(=O)Nc1cn2ccc(-c3nc(C)n[nH]3)cc2n1 [Example 20, 1-Ethyl-3-[7-(5-methyl-2H-[1,2,4]triazol-3-yl)-imidazo[1,2-a]pyridin-2-yl]-urea]
